From patent US20060264418A1, “6-(2,2,2-Trifluoroethylamino-7-chloro-2,3,4,5-tetrahydro-1h-benzo[d] azephine as a 5-ht2c receptor agonist” (priority 2003, published 2006)

Assays:
[1] = target: alpha 1 adrenergic receptor; assay: Radioligand receptor binding assay, alpha 1 adrenergic
[2] = target: T1, human 5-HT2B receptor (Homo sapiens, UniProt P41595); assay: G alpha q-GTPγ[35S] binding agonist activity assay (ISPA), 5-HT2B; type: biochemical
T1 construct: expressed in transfected cells; host or cells: AV12 cells
Experimental: Agonist Activity Assays (G Alpha g-GTPγ[^35S] Binding Assays)
The 5-HT2 receptors are functionally coupled to specific G-proteins. Agonist activation of 5-HT2 G-protein-coupled receptors results in the release of GDP from the α-subunit (G alpha q or G alpha i) of the G-protein and the subsequent binding of GTP. The binding of the stable analog GTPγ[^35S] is an indicator of receptor activation (i.e. agonist activity).
The area under the dose response curve (AUC) is also determined for each receptor subtype and used to measure the test compound's selectivity for the 5-HT2C receptor over the 5-HT2A and 5-HT2B receptors, expressed as Selectivity Ratios (AUC 2C/2A and AUC 2C/2B, respectively). The Selectivity Ratios allow the assessment of selectivity based on both potency and efficacy. A selectivity measure that incorporates both potency and efficacy at the 5-HT2C receptor, as compared to the 5-HT2A and 5-HT2B.receptors, is considered important due to the adverse events associated with 5-HT2A and 5-HT2B agonist activity (see introduction). […]
G alpha q-GTPγ[^35S] […] Quantitate the GTPγ[^35] binding by microtiter plate scintillation spectrometry (Wallac Trilux MicroBeta™ scintillation counter). […]

[3] = test system: male Long-Evans rats; assay: Calorimetric acute feeding assay; type: in vivo, rat; conditions: oral dose
Source text: Animals: Obtain male Long-Evans rats (Harlan Sprague-Dawley, Indianapolis, Ind.) that are approximately one hundred-days old and have been maintained on a calorie rich diet since weaning (TD 95217, 40% calories from fat; Teklad, Madison, Wis.). House the rats individually with a 12 hr.:12 hr. light:dark cycle (lights on from about 22:00 hr. to about 10:00 hr.) and maintain rats on the same diet (TD 95217) with free access to water, for about 1-2 weeks to acclimate the rats to the environment. Dose rats orally with vehicle (10% acacia with 0.15% saccharin in water) once daily for at least 1 day (typically 1-2 days) to acclimate the rats to the procedures. Randomize the rats into groups so each group has similar mean body weights.
Calorimetric Acute Feeding Assay: At approximately 8:00 hr. on the day of assay, weigh each rat and transfer to individual chambers of an open circuit calorimetry system (Oxymax, Columbus Instruments International Corporation; Columbus, Ohio), with free access to food (pre-weighed) and water, and begin measuring VO2 and VCO2. At approximately 10:00 hr., dose rats orally with vehicle or test compound, return them to their calorimetry chambers, and continue measuring VO2 and VCO2 at regular time intervals (approximately hourly). At approximately 8:00 hr. the following day, measure rat body weight and the remaining food, assuming the difference in weight of food is equal to the mass of food consumed. Calculate the 24 hr. energy expenditure (EE) and respiratory quotient (RQ) essentially as described in Chen, Y. and Heiman, M. L., Regulatory Peptide, 92:113-119 (2000). […]
Calculate EE as the product of calorific value (CV) and VO2 per body weight (kg); where CV=3.815+1.232*RQ, and RQ is the ratio of CO2 produced (VCO2) to O2 consumed (VO2). Caloric intake is calculated as (mass of 24 hr. food intake in grams)×(physiological fuel value of the diet in kilocalorie/g) per kg of body weight.

T1 sequence (P41595 whole entry): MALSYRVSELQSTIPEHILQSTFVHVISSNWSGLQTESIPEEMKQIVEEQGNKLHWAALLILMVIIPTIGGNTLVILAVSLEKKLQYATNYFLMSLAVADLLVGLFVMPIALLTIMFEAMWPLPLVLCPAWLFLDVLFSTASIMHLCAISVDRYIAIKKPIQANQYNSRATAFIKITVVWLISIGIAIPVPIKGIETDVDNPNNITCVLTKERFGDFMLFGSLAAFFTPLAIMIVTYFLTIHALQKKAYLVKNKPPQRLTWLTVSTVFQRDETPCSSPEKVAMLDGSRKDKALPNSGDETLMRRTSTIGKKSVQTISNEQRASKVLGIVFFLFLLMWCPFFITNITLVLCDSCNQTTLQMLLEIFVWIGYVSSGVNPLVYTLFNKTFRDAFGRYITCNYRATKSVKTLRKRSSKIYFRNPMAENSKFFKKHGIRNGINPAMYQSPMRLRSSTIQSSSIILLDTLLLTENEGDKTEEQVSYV

FC(F)(F)CNc1c(Cl)ccc2c1CCNCC2.O=C(O)CCC(=O)O [Example 2, 7-Chloro-6-(2,2,2-trifluoroethylamino)-2,3,4,5-tetrahydro-1H-benzo[d]azepine Succinic Acid Salt]
IC50 [1]: > 3000 nM | Emax [2]: 33.9 ± 1% | EC50 ([2]; AV12 cell membranes with human 5-HT2B, ± standard error of the mean): 119 ± 34 nM | 24 hr. food intake ([3]; acute assays, rats on calorie rich diet): significantly reduce 24 hr. food intake | respiratory quotient (RQ) ([3]; acute, 24 hr. calorimetry): dose-dependently reduced RQ | energy expenditure during the light photoperiod ([3]; acute, indicative of resting metabolic rate): without significantly changing
